Columns and labels:
PDK1 = target: T1, PDK1 (Homo sapiens, UniProt O15530); assay: Test for the inhibition of PDK1 (flashplate, 33P-ATP); assay type: biochemical; settings: His6-PDK1 3.4 nM, 4 μM ATP, 30° C., 60 min
T1 construct: His6 (N)
Description: The experimental batches are carried out in a flashplate system with 384 wells/microtitration plate.
In each case, the PDK1 sample His6-PDK1(SEQ ID NO: 2)(1-50)(3.4 nM), the PDK1 substrate biotin-bA-bA-[…] (SEQ ID NO: 3) (400 nM), 4 μM ATP (with 0.2 μCi of ^33P-ATP/well) and the test substance in 50 μl of conventional experimental solution per well are incubated at 30° C. for 60 min. The test substances are employed in corresponding concentrations (if desired in a dilution series). The control is carried out without test substance. The reaction is stopped using standard methods and washed. The activity of the kinase is measured via the incorporated radioactivity in top count. In order to determine the non-specific kinase reaction (blank value), the experimental batches are carried out in the presence of 100 nM staurosporin.
The radioactivity (decompositions per minute) of the blank value (no use of test substance in the presence of staurosporin) is subtracted from all other radioactivity values. The controls (kinase activity without test substance) are set equal to 100 percent and all other radioactivity values (after subtracting the blank value) are expressed set in relation thereto (for example in % of the control).
IC50 values (50% inhibition) are determined with the aid of statistics programmes, such as, for example, RS1.

[1] = system: PDK1 kinase activity in PC3 cells (phospho-T308-PKB); assay: Cellular testing of PDK1 kinase inhibitors in PC3 cells (Luminex, phospho-T308-PKB); assay type: cell-based; settings: Homo sapiens, PC-3, 0.5 h, 30 min with test substance, serum-free, phospho-T308-PKB by Luminex, read-out: IC50 [PC3 P-PKB Thr308]
Description: Method for the Cellular Testing of PDK1 Kinase Inhibitors in PC3 Cells.
The cellular assay for the determination of the PDK1 kinase activity is carried out as a Luminex assay in the 96-well format. PC3 cells are sown at 20,000 cells per well in 100 μl of medium (45% of […]/45% of Ham's F12/10% of FCS) and incubated on the following day for 30 min with a serial dilution of the test substance (7 concentrations) under serum-free conditions. The cells are subsequently lysed using 90 μl of lysis buffer (20 mM tris/HCl pH 8.0, 150 mM NaCl, 1% of NP40, 10% of glycerol, 1% of phosphatase inhibitor I, 1% of phosphatase inhibitor II, 0.1% of protease inhibitor cocktail III, 0.01% of benzonase) per well, and the lysates are separated off from insoluble cell constituents by means of centrifugation through a 96-well filter plate (0.65 μm). The lysates are incubated overnight at 4° C. with shaking with Luminex beads to which an anti-total PKB antibody is coupled. The detection is carried out on the following day by addition of a phospho-T308-PKB antibody and a species-specific […] secondary antibody. The detection of phospho-T308-PKB is carried out by measurement in a Luminex100 instrument by determination of 100 events per cavity in a measurement time of 60 sec. As pharmacological blank, the signals obtained from cells which have been treated with 10 μM staurosporin are subtracted from all other batches. The control value used for maximum phosphorylation of PKB on T308 are the signals from cells which have only been treated with the solvent (0.3% of DMSO). The values of the batches treated with test substance are calculated therefrom as percentage of control, and IC50 values are determined by means of RS1.

T1 sequence (O15530 51-556): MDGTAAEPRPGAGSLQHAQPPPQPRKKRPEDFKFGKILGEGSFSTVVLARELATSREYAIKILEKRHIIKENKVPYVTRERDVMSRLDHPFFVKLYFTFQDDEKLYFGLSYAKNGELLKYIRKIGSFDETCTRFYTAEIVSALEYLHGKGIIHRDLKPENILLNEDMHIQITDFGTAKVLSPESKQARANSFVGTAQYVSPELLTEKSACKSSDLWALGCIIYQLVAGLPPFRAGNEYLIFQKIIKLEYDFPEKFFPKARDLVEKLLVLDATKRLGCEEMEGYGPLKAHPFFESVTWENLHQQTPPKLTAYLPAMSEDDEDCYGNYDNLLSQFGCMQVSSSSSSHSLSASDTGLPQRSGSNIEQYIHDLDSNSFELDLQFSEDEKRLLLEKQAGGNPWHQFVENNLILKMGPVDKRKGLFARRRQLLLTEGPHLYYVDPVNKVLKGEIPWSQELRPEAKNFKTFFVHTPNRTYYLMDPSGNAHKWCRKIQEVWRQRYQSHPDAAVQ

SMILES	IC50 (PDK1)	IC50 [1]
CCc1cc(-c2c[nH]c3ncc(-c4cnn(CC(=O)N5CCOCC5)c4)cc23)nc(N)n1 [Compound A32, 2-{4-[3-(2-Amino-6-ethylpyrimidin-4-yl)-1H-pyrrolo[2,3-b]pyridin-5-yl]pyrazol-1-yl}-1-morpholin-4-ylethanone]	10 to 1000 nM	10 to 20 µM
CCc1cc(-c2c[nH]c3ncc(-c4cnn(CCO)c4)cc23)nc(N)n1 [Compound A33, 2-{4-[3-(2-Amino-6-ethylpyrimidin-4-yl)-1H-pyrrolo[2,3-b]pyridin-5-yl]pyrazol-1-yl}ethanol]	10 to 1000 nM	10 to 20 µM
CCc1cc(-c2c[nH]c3ncc(-c4cnn(CC(=O)N(C)C)c4)cc23)nc(N)n1 [Compound A34, 2-{4-[3-(2-Amino-6-ethylpyrimidin-4-yl)-1H-pyrrolo[2,3-b]pyridin-5-yl]pyrazol-1-yl}-N,N-dimethylacetamide]	10 to 1000 nM	10 to 20 µM
CCCC(O)c1cc(-c2c[nH]c3ncc(-c4cnn(C(C)C)c4)cc23)nc(N)n1 (centres unmarked) [Compound A35, 1-{2-Amino-6-[5-(1-isopropyl-1H-pyrazol-4-yl)-1H-pyrrolo[2,3-b]pyridin-3-yl]-pyrimidin-4-yl}butan-1-ol]	10 to 1000 nM	1 to 10 µM
CC(O)Cc1cc(-c2c[nH]c3ncc(-c4cnn(C(C)C)c4)cc23)nc(N)n1 (centres unmarked) [Compound A36, 1-{2-Amino-6-[5-(1-isopropyl-1H-pyrazol-4-yl)-1H-pyrrolo[2,3-b]pyridin-3-yl]-pyrimidin-4-yl}propan-2-ol]	10 to 1000 nM	10 to 20 µM
CCc1cc(-c2c[nH]c3ncc(-c4ccc(Cl)s4)cc23)nc(N)n1 [Compound A37, 4-[5-(5-Chlorothiophen-2-yl)-1H-pyrrolo[2,3-b]pyridin-3-yl]-6-ethylpyrimidin-2-ylamine]	1000 to 10000 nM	10 to 20 µM
CC(C)n1cc(-c2cnc3[nH]cc(-c4cc(CCCO)nc(N)n4)c3c2)cn1 [Compound A38, 3-{2-Amino-6-[5-(1-isopropyl-1H-pyrazol-4-yl)-1H-pyrrolo[2,3-b]pyridin-3-yl]-pyrimidin-4-yl}propan-1-ol]	10 to 1000 nM	10 to 20 µM
CN(C)CCn1cc(-c2cnc3[nH]cc(-c4cc(CCCCO)nc(N)n4)c3c2)cn1 [Compound A39, 4-(2-Amino-6-{5-[1-(2-dimethylaminoethyl)-1H-pyrazol-4-yl]-1H-pyrrolo-[2,3-b]pyridin-3-yl}pyrimidin-4-yl)butan-1-ol]	10 to 1000 nM	10 to 20 µM
CC(C)n1cc(-c2cnc3[nH]cc(-c4cc(CCCCO)nc(N)n4)c3c2)cn1 [Compound A40, 4-{2-Amino-6-[5-(1-isopropyl-1H-pyrazol-4-yl)-1H-pyrrolo[2,3-b]pyridin-3-yl]-pyrimidin-4-yl}butan-1-ol]	10 to 1000 nM	1 to 10 µM
CN(C)CCn1cc(-c2cnc3[nH]cc(-c4cc(CCN5CCN(C)CC5)nc(N)n4)c3c2)cn1 [Compound A41, 4-{5-[1-(2-Dimethylaminoethyl)-1H-pyrazol-4-yl]-1H-pyrrolo[2,3-b]pyridin-3-yl}-6-[2-(4-methylpiperazin-1-yl)ethyl]pyrimidin-2-ylamine]	10 to 1000 nM	10 to 20 µM
CCc1cc(-c2c[nH]c3ncc(-c4ncc(-c5cccc(N)c5)o4)cc23)nc(N)n1 [Compound A42, 4-{5-[5-(3-Aminophenyl)oxazol-2-yl]-1H-pyrrolo[2,3-b]pyridin-3-yl}-6-ethylpyrimidin-2-ylamine]	1000 to 10000 nM	10 to 20 µM
CC(C)n1cc(-c2cnc3[nH]cc(-c4cc(CCN5CCN(C)CC5)nc(N)n4)c3c2)cn1 [Compound A43, 4-[5-(1-Isopropyl-1H-pyrazol-4-yl)-1H-pyrrolo[2,3-b]pyridin-3-yl]-6-[2-(4-methylpiperazin-1-yl)ethyl]pyrimidin-2-ylamine]	10 to 1000 nM	10 to 20 µM
CCc1cc(-c2c[nH]c3ncc(-c4cnn(C5CCN(S(C)(=O)=O)CC5)c4)cc23)nc(N)n1 [Compound A44, 4-Ethyl-6-{5-[1-(1-methanesulfonylpiperidin-4-yl)-1H-pyrazol-4-yl]-1H-pyrrolo[2,3-b]pyridin-3-yl}pyrimidin-2-ylamine]	10 to 1000 nM	1 to 10 µM
CCc1cc(-c2c[nH]c3ncc(-c4cnn(C5CCN(C(C)=O)CC5)c4)cc23)nc(N)n1 [Compound A46, 1-(4-{4-[3-(2-Amino-6-ethylpyrimidin-4-yl)-1H-pyrrolo[2,3-b]pyridin-5-yl]-pyrazol-1-yl}piperidin-1-yl)ethanone]	10 to 1000 nM	10 to 20 µM
CCCC(O)c1cc(-c2c[nH]c3ncccc23)nc(N)n1 (centres unmarked) [Compound A48, 1-[2-Amino-6-(1H-pyrrolo[2,3-b]pyridin-3-yl)pyrimidin-4-yl]butan-1-ol]	1000 to 10000 nM	10 to 20 µM
Nc1nc(CCN2CCOCC2)cc(-c2c[nH]c3ncccc23)n1 [Compound A49, 4-(2-Morpholin-4-ylethyl)-6-(1H-pyrrolo[2,3-b]pyridin-3-yl)pyrimidin-2-ylamine]	1000 to 10000 nM	10 to 20 µM
CN1CCN(CCc2cc(-c3c[nH]c4ncccc34)nc(N)n2)CC1 [Compound A50, 4-[2-(4-Methylpiperazin-1-yl)ethyl]-6-(1H-pyrrolo[2,3-b]pyridin-3-yl)pyrimidin-2-ylamine]	1000 to 10000 nM	10 to 20 µM

Other lines, results leading:

IC50 (PDK1)	IC50 [1]	SMILES
10 to 1000 nM	10 to 20 µM	CCc1cc(-c2c[nH]c3ncc(-c4cnn(CC(=O)NC)c4)cc23)nc(N)n1 [Compound A51, 2-{4-[3-(2-Amino-6-ethylpyrimidin-4-yl)-1H-pyrrolo[2,3-b]pyridin-5-yl]pyrazol-1-yl}-N-methylacetamide]
10 to 1000 nM	10 to 20 µM	CCc1cc(-c2c[nH]c3ncc(-c4cnn(CC(=O)NC5CC5)c4)cc23)nc(N)n1 [Compound A52, 2-{4-[3-(2-Amino-6-ethylpyrimidin-4-yl)-1H-pyrrolo[2,3-b]pyridin-5-yl]pyrazol-1-yl}-N-cyclopropylacetamide]
10 to 1000 nM	10 to 20 µM	CC(C)n1cc(-c2cnc3[nH]cc(-c4cc(C5(O)CCCCC5)nc(N)n4)c3c2)cn1 [Compound A53, 1-{2-Amino-6-[5-(1-isopropyl-1H-pyrazol-4-yl)-1H-pyrrolo[2,3-b]pyridin-3-yl]-pyrimidin-4-yl}cyclohexanol]
10 to 1000 nM	10 to 20 µM	CC(C)n1cc(-c2cnc3[nH]cc(-c4cc(C5(O)CCCC5)nc(N)n4)c3c2)cn1 [Compound A54, 1-{2-Amino-6-[5-(1-isopropyl-1H-pyrazol-4-yl)-1H-pyrrolo[2,3-b]pyridin-3-yl]-pyrimidin-4-yl}cyclopentanol]
10 to 1000 nM	1 to 10 µM	CCCCc1cc(-c2c[nH]c3ncc(-c4cnn(CC(=O)N5CCCCC5)c4)cc23)nc(N)n1 [Compound A58, 2-{4-[3-(2-amino-6-butylpyrimidin-4-yl)-1H-pyrrolo[2,3-b]pyridin-5-yl]-pyrazol-1-yl}-1-piperidin-1-ylethanone]
10 to 1000 nM	1 to 10 µM	CCc1cc(-c2c[nH]c3ncc(-c4ccc(CN)cc4)cc23)nc(N)n1 [Compound A81, 4-[5-(4-Aminomethylphenyl)-1H-pyrrolo[2,3-b]pyridin-3-yl]-6-ethylpyrimidin-2-ylamine]
10 to 1000 nM	1 to 10 µM	CCCCc1cc(-c2c[nH]c3ncc(-c4cnn(CCN(C)C)c4)cc23)nc(N)n1 [Compound A85, 4-Butyl-6-{5-[1-(2-dimethylaminoethyl)-1H-pyrazol-4-yl]-1H-pyrrolo[2,3-b]-pyridin-3-yl}pyrimidin-2-ylamine]
10 to 1000 nM	1 to 10 µM	CCCCc1cc(-c2c[nH]c3ncc(-c4cnn(C5CCN(C(C)=O)CC5)c4)cc23)nc(N)n1 [Compound A86, 1-(4-{4-[3-(2-Amino-6-butylpyrimidin-4-yl)-1H-pyrrolo[2,3-b]pyridin-5-yl]-pyrazol-1-yl}piperidin-1-yl)ethanone]
